Laboratory results reported in patent US12252469B2, “Crystalline forms of (E)-N-hydroxy-3-(1-(phenylsulfonyl)indolin-5-yl)acrylamide” (ANBOGEN THERAPEUTICS INC., priority 2023, dated 2025).
Each block holds one compound with its values, some of them ahead of it.

How the values were obtained:
[1] = DVS water uptake; format: physicochemical
Procedure: DVS was measured via a SMS (Surface Measurement Systems) DVS Intrinsic or Intrinsic Plus. The relative humidity at 25° C. were calibrated against deliquescence point of LiCl, Mg(NO3)2 and KCl.

[2] = Competitive slurry, inter-conversion of Type A and Type B; format: physicochemical
[3] = Solid stability evaluation for 1/2/4 weeks; conditions: for HPLC purity change after solid stability / form change after solid stability: all storage conditions;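 on all read-outs here: Solid-state physical and chemical stability tracked by XRPD for form, KF for water content, and HPLC for purity and assay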
Procedure: Type A/B were stored under the conditions of 60° C., 25° C./60% RH, 25° C./92.5% RH and 40° C./75% RH for 1/2/4 weeks for solid stability evaluation. Amorphous was stored under the conditions of 25° C./60% RH and 40° C./75% RH for 1/2/4 weeks for solid stability evaluation. The physical and chemical stability were evaluated by X-ray powder diffraction (XRPD), thermo gravimetric analysis (TGA)/Karl Fischer (KF), differential scanning calorimetry (DSC)/modulated differential I scanning calorimetry (mDSC), high performance liquid chromatography (HPLC) purity and assay, respectively.
XRPD, TGA, DSC and KF in this example are under the same conditions with those described in Example 2.
Agilent 1260 were utilized and detailed chromatographic conditions are listed in

[4] = Polymorph characterization: form conversion on drying; format: physicochemical
Procedure: Using ABT-301 Type A (Sample name: ABT-301, CP ID: 826543-01-A) as starting material, a total of 100 polymorph screening experiments were performed, using methods of vapor-solution diffusion, vapor-solid diffusion, slow evaporation, slurry (RT and 50° C.), temperature cycling, slow cooling, anti-solvent addition and grinding.

water uptake (DVS) ([1]; 25° C./80% RH): 0.1039%
form change after DVS test (XRPD) ([1]; after DVS test): no form change
water activity at which the form was obtained in competitive slurry ([2]; t-Butanol and t-Butanol/H2O, RT, water activity calculated from KF by COSMOlogic): ≤ 0.17
Assay ([3]; 25° C./60% RH, 1 week): 97.8%
Form (XRPD) ([3]; 25° C./60% RH, 1 week): Type B
HPLC purity ([3]; 25° C./60% RH, 1 week): 99.85 Area %
Assay ([3]; 25° C./60% RH, 2 weeks): 96.8%
Form (XRPD) ([3]; 25° C./60% RH, 2 weeks): Type B
HPLC purity ([3]; 25° C./60% RH, 2 weeks): 99.85 Area %
Assay ([3]; 25° C./60% RH, 4 weeks): 98.2%
Form (XRPD) ([3]; 25° C./60% RH, 4 weeks): Type B
HPLC purity ([3]; 25° C./60% RH, 4 weeks): 99.86 Area %
KF (water content) ([3]; 25° C./60% RH, 4 weeks): 2.0658%
Assay ([3]; 40° C./75% RH, 1 week): 97.6%
Form (XRPD) ([3]; 40° C./75% RH, 1 week): Type B
HPLC purity ([3]; 40° C./75% RH, 1 week): 99.85 Area %
Assay ([3]; 40° C./75% RH, 2 weeks): 97.1%
Form (XRPD) ([3]; 40° C./75% RH, 2 weeks): Type B
HPLC purity ([3]; 40° C./75% RH, 2 weeks): 99.84 Area %
Assay ([3]; 40° C./75% RH, 4 weeks): 97.8%
Form (XRPD) ([3]; 40° C./75% RH, 4 weeks): Type B
HPLC purity ([3]; 40° C./75% RH, 4 weeks): 99.85 Area %
KF (water content) ([3]; 40° C./75% RH, 4 weeks): 0.8491%
Assay ([3]; 60° C., 1 week): 98.0%
Form (XRPD) ([3]; 60° C., 1 week): Type B
HPLC purity ([3]; 60° C., 1 week): 99.84 Area %
Assay ([3]; 60° C., 2 weeks): 96.5%
Form (XRPD) ([3]; 60° C., 2 weeks): Type B
HPLC purity ([3]; 60° C., 2 weeks): 99.80 Area %
Assay ([3]; 60° C., 4 weeks): 97.9%
Form (XRPD) ([3]; 60° C., 4 weeks): Type B
HPLC purity ([3]; 60° C., 4 weeks): 99.76 Area %
KF (water content) ([3]; 60° C., 4 weeks): 1.9894%
Assay ([3]; Initial): 96.8%
Form (XRPD) ([3]; Initial): Type B
HPLC purity ([3]; Initial): 99.85 Area %
KF (water content) ([3]; Initial): 0.5387%
Assay ([3]; […], 1 week): 97.9%
Form (XRPD) ([3]; […], 1 week): Type B
HPLC purity ([3]; […], 1 week): 99.85 Area %
Assay ([3]; […], 2 weeks): 96.8%
Form (XRPD) ([3]; […], 2 weeks): Type B
HPLC purity ([3]; […], 2 weeks): 99.85 Area %
Assay ([3]; […], 4 weeks): 98.1%
Form (XRPD) ([3]; […], 4 weeks): Type B
HPLC purity ([3]; […], 4 weeks): 99.85 Area %
KF (water content) ([3]; […], 4 weeks): 1.8514%
form change after solid stability ([3]; 4 weeks): no form change
SMILES: O=C(/C=C/c1ccc2c(c1)CCN2S(=O)(=O)c1ccccc1)NO [Type B, (E)-N-hydroxy-3-(1-(phenylsulfonyl)indolin-5-yl) acrylamide]
HPLC purity change after solid stability ([3]; 4 weeks): no form change, or obvious HPLC purity change

Result (form obtained, competitive slurry) ([2]; 2-MeTHF, 50° C., 2 days): Type B
Result (form obtained, competitive slurry) ([2]; 2-MeTHF, RT, 2 days): Type B + P
Result (form obtained, competitive slurry) ([2]; Acetone (aw~0), RT, 2 days): Type D
Result (form obtained, competitive slurry) ([2]; Acetone/H2O (95:5, aw~0.4), RT, 1 day): Type D
Result (form obtained, competitive slurry) ([2]; Acetone/H2O (605:395, aw~0.8), RT, 1 day): Type D
Result (form obtained, competitive slurry) ([2]; Acetone/H2O (857:143, aw~0.6), RT, 1 day): Type D
Result (form obtained, competitive slurry) ([2]; Acetone/H2O (986:14, aw~0.2), RT, 1 day): Type D
Result (form obtained, competitive slurry) ([2]; H2O, RT, 1 day): Type A
Result (form obtained, competitive slurry) ([2]; MIBK, 50° C., 2 days): Type B
Result (form obtained, competitive slurry) ([2]; MIBK, RT, 2 days): Type O
Result (form obtained, competitive slurry) ([2]; Toluene, 50° C., 8 days): Type B
Result (form obtained, competitive slurry) ([2]; Toluene, RT, 1 day, without molecular sieve, KF 0.0250 wt %, water activity 0.32): Type A
Result (form obtained, competitive slurry) ([2]; Toluene, RT, 2 days, with molecular sieve, KF 0.0072 wt %, water activity 0.11): Type B
Result (form obtained, competitive slurry) ([2]; n-Heptane, 50° C., 8 days): Type B
Result (form obtained, competitive slurry) ([2]; n-Heptane, RT, 1 day, without molecular sieve, KF 0.0049 wt %, water activity 0.29): Type A
Result (form obtained, competitive slurry) ([2]; n-Heptane, RT, 2 days, with molecular sieve, KF 0.0003 wt %, water activity 0.02): Type B
Result (form obtained, competitive slurry) ([2]; t-Butanol, RT, 1 day, water activity 0.06): Type B
Result (form obtained, competitive slurry) ([2]; t-Butanol/H2O (886:121), RT, 3 days, water activity 0.88): Type A
Result (form obtained, competitive slurry) ([2]; t-Butanol/H2O (909:10), RT, 1 day, water activity 0.17): Type B
Result (form obtained, competitive slurry) ([2]; t-Butanol/H2O (962:71), RT, 3 days, water activity 0.71): Type A
Result (form obtained, competitive slurry) ([2]; t-Butanol/H2O (980:35), RT, 1 day, water activity 0.37): Type A
Result (form obtained, competitive slurry) ([2]; t-Butanol/H2O (985:30), RT, 3 days, water activity 0.56): Type A
SMILES: O=C(/C=C/c1ccc2c(c1)CCN2S(=O)(=O)c1ccccc1)NO [Type A/Type B, (E)-N-hydroxy-3-(1-(phenylsulfonyl)indolin-5-yl) acrylamide]

Assay ([3]; 25° C./60% RH, 1 week): 91.3%
Form (XRPD) ([3]; 25° C./60% RH, 1 week): Type A
HPLC purity ([3]; 25° C./60% RH, 1 week): 99.71 Area %
Assay ([3]; 25° C./60% RH, 2 weeks): 92.2%
Form (XRPD) ([3]; 25° C./60% RH, 2 weeks): Type A
HPLC purity ([3]; 25° C./60% RH, 2 weeks): 99.76 Area %
Assay ([3]; 25° C./60% RH, 4 weeks): 90.7%
Form (XRPD) ([3]; 25° C./60% RH, 4 weeks): Type A
HPLC purity ([3]; 25° C./60% RH, 4 weeks): 99.81 Area %
Assay ([3]; 40° C./75% RH, 1 week): 91.5%
Form (XRPD) ([3]; 40° C./75% RH, 1 week): Type A
HPLC purity ([3]; 40° C./75% RH, 1 week): 99.75 Area %
Assay ([3]; 40° C./75% RH, 2 weeks): 92.1%
Form (XRPD) ([3]; 40° C./75% RH, 2 weeks): Type A
HPLC purity ([3]; 40° C./75% RH, 2 weeks): 99.78 Area %
Assay ([3]; 40° C./75% RH, 4 weeks): 90.6%
Form (XRPD) ([3]; 40° C./75% RH, 4 weeks): Type A
HPLC purity ([3]; 40° C./75% RH, 4 weeks): 99.84 Area %
Assay ([3]; Initial): 91.5%
Form (XRPD) ([3]; Initial): Amorphous
HPLC purity ([3]; Initial): 99.84 Area %
HPLC purity change after solid stability ([3]; 4 weeks): no obvious HPLC purity change
form change after solid stability ([3]; 4 weeks): converted to Type A
SMILES: O=C(/C=C/c1ccc2c(c1)CCN2S(=O)(=O)c1ccccc1)NO [Amorphous, (E)-N-hydroxy-3-(1-(phenylsulfonyl)indolin-5-yl) acrylamide]

SMILES: O=C(/C=C/c1ccc2c(c1)CCN2S(=O)(=O)c1ccccc1)NO [Type Q, (E)-N-hydroxy-3-(1-(phenylsulfonyl)indolin-5-yl) acrylamide]
form conversion on drying ([4]; dried at RT in open air for 8 days and under vacuum for 16.5 hours): The sample converted to Type M after dried at RT in open

SMILES: O=C(/C=C/c1ccc2c(c1)CCN2S(=O)(=O)c1ccccc1)NO [Type P, (E)-N-hydroxy-3-(1-(phenylsulfonyl)indolin-5-yl) acrylamide]
form conversion on drying ([4]; dried at RT overnight): The sample converted to Type A after dried at RT overnight.
